How the values were obtained:
Nluc-FZD6 = target: T1, Nluc-FZD6 (Homo sapiens, UniProt O60353); assay: BRET-based BODIPY-cyclopamine competition binding at Nluc-FZD6 in live HEK293 cells; settings: for Displacement % / Displacement @ 10 µM compound (Nluc-FZD6) ΔBRET: 10 µM compound, BODIPY-cyclopamine 300 nM
T1 construct: expressed in transfected cells; host or cells: ΔSMO HEK293A or ΔFZD1–10 HEK293T cells (screen); ΔFZD1–10 HEK293T cells (concentration–response curves)
T1 sequence (O60353 19-706): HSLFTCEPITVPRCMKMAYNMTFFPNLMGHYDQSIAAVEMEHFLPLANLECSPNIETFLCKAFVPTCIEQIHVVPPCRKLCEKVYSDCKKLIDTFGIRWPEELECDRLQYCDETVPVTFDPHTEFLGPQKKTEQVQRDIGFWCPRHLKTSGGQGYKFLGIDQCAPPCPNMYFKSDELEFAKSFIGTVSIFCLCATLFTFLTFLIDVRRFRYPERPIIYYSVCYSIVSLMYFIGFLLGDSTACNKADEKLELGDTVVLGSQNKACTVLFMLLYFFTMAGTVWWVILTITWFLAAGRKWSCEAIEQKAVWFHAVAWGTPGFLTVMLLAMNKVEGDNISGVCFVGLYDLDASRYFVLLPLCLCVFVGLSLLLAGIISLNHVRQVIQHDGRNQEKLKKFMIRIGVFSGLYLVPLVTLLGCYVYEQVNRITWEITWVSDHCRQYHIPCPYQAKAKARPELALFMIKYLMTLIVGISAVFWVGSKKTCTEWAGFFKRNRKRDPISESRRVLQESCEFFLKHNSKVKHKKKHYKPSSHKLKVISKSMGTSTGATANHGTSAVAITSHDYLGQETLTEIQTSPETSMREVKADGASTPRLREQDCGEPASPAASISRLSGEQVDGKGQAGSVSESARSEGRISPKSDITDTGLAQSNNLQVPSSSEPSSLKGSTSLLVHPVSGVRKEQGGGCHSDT
Experimental: After 24 h, cells were washed once with Hanks' balanced salt solution (HBSS), followed by the addition of 80 μl of HBSS. Next, 10 μl of the competitive ligand, that is, the tested SAG1.3 derivative (either in different concentrations for the concentration–response curves or at a final concentration of 10 μM for the first screens) and 10 μl of the fluorescent tracer BODIPY–cyclopamine (final concentration: 300 nM for the first screens, 200 nM for the concentration–response experiments) were added. All serial dilutions were prepared in HBSS. The cells were incubated for 90 min at 37 °C without additional CO2, after which 10 μl of luciferase substrate diluted in HBSS (furimazine; Promega, N1572, final dilution: 1:1000 for first screening) and coelenterazine h (Biosynth; final concentration: 5 μM for concentration–response experiments) were added to the cells. Following a 10 min incubation period in the dark, the measurement was started on a BMG Labtech ClarioStar or TECAN Spark multimode microplate reader, prewarmed to 37 °C. Nluc bioluminescence was detected between 460 and 490 nm (ClarioStar) or 460 and 500 nm (TECAN Spark). The emission of the fluorescent tracer was detected between 520 and 550 nm (ClarioStar) or between 520 and 560 nm (TECAN Spark).
For each binding experiment, the measurement was repeated five times and averaged for the analysis. ΔBRET values were obtained by subtracting the BRET ratio obtained in wells containing BODIPY–cyclopamine but no competitive ligand (100% value). The BRET values for full displacement were defined using “donor-only” control wells, which contained Nluc-FZDx-transfected cells but no BODIPY–cyclopamine.
For the full concentration–response BRET binding curves in Figure 2, BRET values were normalized (separately for each experiment) to control wells containing BODIPY–cyclopamine but no competitive ligand (100% value) and “donor-only” wells (0% value, described previously). […] Obtained IC50 values were transformed to pIC50 values, which were subsequently averaged between experiments. Displacement curves showing the non-normalized data (ΔBRET values generated as described previously) can be found in Fig. S2.
Shown are mean values and SDs from N independent experiments (N = 2-8) performed in duplicate.
Shown are mean values ± SEM from N independent experiments performed in triplicate.

FZD6 = tested on: FZD6; set-up: method as in PMID 31964872, PMID 34168128; settings: ref [18], [24]; cited from earlier work
[1] = set-up: method as in PMID 31338636, PMID 32803633; settings: ref [14], [54]; cited from earlier work
[2] = TECAN Spark reader (complete tracer displacement: net BRET = -0.03823)
[3] = BODIPY-cyclopamine 200 nM, ΔFZD1-10 HEK293T cells
[4] = BMG Labtech ClarioStar reader (complete tracer displacement: net BRET = -0.02736)

## CCC(=O)Nc1cccc(C(=O)N[C@H]2CC[C@H](N(Cc3cccc(-c4ccncc4)c3)C(=O)c3sc4ccccc4c3Cl)CC2)c1 [compound 14, 3-Chloro-N-((1r,4r)-4-(3-propionamidobenzamido)cyclohexyl)-N-(3-(pyridin-4-yl)benzyl)benzo[b]thiophene-2-carboxamide]
Nluc-FZD6; TECAN Spark reader
  Displacement %: 75.9%
Nluc-FZD6; [2]
  Displacement @ 10 µM compound (Nluc-FZD6) ΔBRET: -0.0290
Nluc-FZD6; [3]
  pIC50 (Nluc-FZD6) mean ± SEM: 5.57 ± 0.17

## O=C(N[C@H]1CC[C@H](N(Cc2cccc(-c3ccncc3)c2)C(=O)c2sc3ccccc3c2Cl)CC1)c1ccco1 [compound 10]
Nluc-FZD6; [4]
  Displacement @ 10 µM compound (Nluc-FZD6) ΔBRET: -0.0207
Nluc-FZD6; ClarioStar reader
  Displacement %: 75.5%
Nluc-FZD6; [3]
  pIC50 (Nluc-FZD6) mean ± SEM: 5.29 ± 0.02

## CN[C@H]1CC[C@H](N(Cc2cccc(-c3ccncc3)c2)C(=O)c2sc3ccccc3c2Cl)CC1.Cl.Cl [SAG1.3, 3-chloro-N-[trans-4-(methylamino)cyclohexyl]-N-[[3-(4-pyridinyl)phenyl]methyl]-benzo[b]thiophene-2-carboxamide dihydrochloride]
FZD6
  Efficacy at FZD6: very low efficacy
  Potency at FZD6: double-digit micromolar potency
Nluc-FZD6; [4]
  Displacement @ 10 µM compound (Nluc-FZD6) ΔBRET: -0.0099
Nluc-FZD6; ClarioStar reader
  Displacement %: 36.1%
Nluc-FZD6; TECAN Spark reader
  Displacement %: 38.7%
Nluc-FZD6; [2]
  Displacement @ 10 µM compound (Nluc-FZD6) ΔBRET: -0.0148

## Nc1ccc(C(=O)N[C@H]2CC[C@H](N(Cc3cccc(-c4ccncc4)c3)C(=O)c3sc4ccccc4c3Cl)CC2)nn1 [compound 23, 6-Amino-N-((1r,4r)-4-(3-chloro-N-(3-(pyridin-4-yl)benzyl)benzo[b]thiophene-2-carboxamido)cyclohexyl)pyridazine-3-carboxamide]
Nluc-FZD6; TECAN Spark reader
  Displacement %: 85.8%
Nluc-FZD6; [2]
  Displacement @ 10 µM compound (Nluc-FZD6) ΔBRET: -0.0328
Nluc-FZD6; [3]
  pIC50 (Nluc-FZD6) mean ± SEM: 5.54 ± 0.03

## O=C(NC1CCC(N(Cc2ccc(-c3cccnc3)cc2)C(=O)c2sc3ccccc3c2Cl)CC1)c1ccco1 (stereo not shown) [compound 52, N-(4-(3-Chloro-N-(4-(pyridin-3-yl)benzyl)benzo[b]thiophene-2-carboxamido)cyclohexyl)furan-2-carboxamide]
Nluc-FZD6; [4]
  Displacement @ 10 µM compound (Nluc-FZD6) ΔBRET: -0.0194
Nluc-FZD6; ClarioStar reader
  Displacement %: 70.9%
Nluc-FZD6; BODIPY-cyclopamine 200 nM, ΔFZD1-10 HEK293T cells, read-out: pIC50 (Nluc-FZD6) mean ± SEM (converted)
  IC50: 8.71 µM

## O=C(CN1CCOCC1)Nc1cccc(C(=O)N[C@H]2CC[C@H](N(Cc3cccc(-c4ccncc4)c3)C(=O)c3sc4ccccc4c3Cl)CC2)c1 [compound 19, 3-Chloro-N-((1r,4r)-4-(3-(2-morpholinoacetamido)benzamido)cyclohexyl)-N-(3-(pyridin-4-yl)benzyl)benzo[b]thiophene-2-carboxamide]
Nluc-FZD6; TECAN Spark reader
  Displacement %: 87.6%
Nluc-FZD6; [2]
  Displacement @ 10 µM compound (Nluc-FZD6) ΔBRET: -0.0335
Nluc-FZD6; [3]
  pIC50 (Nluc-FZD6) mean ± SEM: 5.71 ± 0.04

## CN1CCC(C(=O)Nc2cccc(C(=O)N[C@H]3CC[C@H](N(Cc4cccc(-c5ccncc5)c4)C(=O)c4sc5ccccc5c4Cl)CC3)c2)CC1 [compound 17, N-(3-(((1r,4r)-4-(3-Chloro-N-(3-(pyridin-4-yl)benzyl)benzo[b]thiophene-2-carboxamido)cyclohexyl)-carbamoyl)phenyl)-1-methylpiperidine-4-carboxamide]
Nluc-FZD6; TECAN Spark reader
  Displacement %: 73.6%
Nluc-FZD6; [2]
  Displacement @ 10 µM compound (Nluc-FZD6) ΔBRET: -0.0281
Nluc-FZD6; [3]
  pIC50 (Nluc-FZD6) mean ± SEM: 5.49 ± 0.04

## O=C(N[C@H]1CC[C@H](N(Cc2cccc(-c3ccncc3)c2)C(=O)c2sc3ccccc3c2Cl)CC1)c1ccncc1Cl [compound 21, 3-Chloro-N-((1r,4r)-4-(3-chloro-N-(3-(pyridin-4-yl)benzyl)benzo[b]thiophene-2-carboxamido)cyclohexyl)isonicotinamide]
Nluc-FZD6; TECAN Spark reader
  Displacement %: 78.2%
Nluc-FZD6; [2]
  Displacement @ 10 µM compound (Nluc-FZD6) ΔBRET: -0.0299
Nluc-FZD6; [3]
  pIC50 (Nluc-FZD6) mean ± SEM: 5.44 ± 0.05

## CC(C)C(=O)Nc1cccc(C(=O)N[C@H]2CC[C@H](N(Cc3cccc(-c4ccncc4)c3)C(=O)c3sc4ccccc4c3Cl)CC2)c1 [compound 15, 3-Chloro-N-((1r,4r)-4-(3-isobutyramidobenzamido)cyclohexyl)-N-(3-(pyridin-4-yl)benzyl)benzo[b]thiophene-2-carboxamide]
Nluc-FZD6; TECAN Spark reader
  Displacement %: 70.1%
Nluc-FZD6; [2]
  Displacement @ 10 µM compound (Nluc-FZD6) ΔBRET: -0.0268
Nluc-FZD6; [3]
  pIC50 (Nluc-FZD6) mean ± SEM: 5.13 ± 0.16

## CN1CCN(CC(=O)Nc2cccc(C(=O)N[C@H]3CC[C@H](N(Cc4cccc(-c5ccncc5)c4)C(=O)c4sc5ccccc5c4Cl)CC3)c2)CC1 [compound 18, 3-Chloro-N-((1r,4r)-4-(3-(2-(4-methylpiperazin-1-yl)acetamido)benzamido)cyclohexyl)-N-(3-(pyridin-4-yl)benzyl)benzo[b]thiophene-2-carboxamide]
Nluc-FZD6; TECAN Spark reader
  Displacement %: 81.1%
Nluc-FZD6; [2]
  Displacement @ 10 µM compound (Nluc-FZD6) ΔBRET: -0.0310
Nluc-FZD6; [3]
  pIC50 (Nluc-FZD6) mean ± SEM: 5.50 ± 0.04

B1: vantictumab: monoclonal antibody binding to five of 10 FZD paralogs (antibody, chains of the INN, looked up, V domains shown)
VH: EVQLVESGGGLVQPGGSLRLSCAASGFTFSHYTLSWVRQAPGKGLEWVSVISGDGSYTYYADSVKGRFTISSDNSKNTLYLQMNSLRAEDTAVYYCARNFIKYVFANWGQGTLVTVSS
VL: DIELTQPPSVSVAPGQTARISCSGDNIGSFYVHWYQQKPGQAPVLVIYDKSNRPSGIPERFSGSNSGNTATLTISGTQAEDEADYYCQSYANTLSLVFGGGTKLTVL
[1]
  Reason for dismissal in phase Ib clinical trials: bone toxicity

Source: publication PMC12605013, “SAG1.3-derived Frizzled-targeting small-molecule compounds” (The Journal of Biological Chemistry, 2025)
